According to patent publication US11142529B2 (priority 2013, dated 2021):
Entries after “also recorded” stand apart in the source; their conditions may differ. Read-outs that look alike come from different tables or passages of the source.

Experiments:
[1] = molecular target: T1, GABAAα5 receptor (Rattus norvegicus, UniProt P18508+P19969); test: GABAA α5 receptor occupancy with Ro 15-4513 tracer (Example 107B); type: in vivo, Long Evans rats
T1 construct: occupancy in the hippocampus (a region of high GABAAα5 receptor density); from tissue; host or cells: rat brain in vivo; hippocampus versus cerebellum
T1 sequence (P19969 32-464 limits assumed): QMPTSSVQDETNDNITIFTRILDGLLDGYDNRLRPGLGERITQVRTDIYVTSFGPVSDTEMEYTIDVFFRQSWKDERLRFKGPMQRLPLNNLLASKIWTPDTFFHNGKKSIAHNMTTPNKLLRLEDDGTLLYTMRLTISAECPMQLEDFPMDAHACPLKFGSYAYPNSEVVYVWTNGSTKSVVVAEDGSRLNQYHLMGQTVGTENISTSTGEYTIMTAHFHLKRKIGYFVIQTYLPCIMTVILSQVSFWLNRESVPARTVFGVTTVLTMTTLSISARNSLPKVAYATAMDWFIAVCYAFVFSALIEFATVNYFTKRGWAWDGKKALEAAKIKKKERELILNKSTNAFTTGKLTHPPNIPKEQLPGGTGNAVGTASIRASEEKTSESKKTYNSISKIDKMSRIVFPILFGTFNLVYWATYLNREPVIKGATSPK
T1 sequence (P18508 39-466): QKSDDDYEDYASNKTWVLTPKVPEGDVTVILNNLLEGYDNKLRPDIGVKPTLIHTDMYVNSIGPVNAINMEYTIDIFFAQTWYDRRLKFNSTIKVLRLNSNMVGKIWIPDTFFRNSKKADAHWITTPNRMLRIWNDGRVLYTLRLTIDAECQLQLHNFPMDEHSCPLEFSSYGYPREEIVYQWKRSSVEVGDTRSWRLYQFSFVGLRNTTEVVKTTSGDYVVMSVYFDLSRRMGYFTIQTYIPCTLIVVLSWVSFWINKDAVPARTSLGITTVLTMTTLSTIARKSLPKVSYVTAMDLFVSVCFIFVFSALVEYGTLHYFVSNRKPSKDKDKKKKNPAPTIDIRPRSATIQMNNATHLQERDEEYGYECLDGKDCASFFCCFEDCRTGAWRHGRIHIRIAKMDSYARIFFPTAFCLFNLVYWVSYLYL
Excerpt: (§1) Food and water were available ad libitum.

[2] = test system: aged-impaired (AI) rats; test: Radial Arm Maze (RAM) behavioral task, two-hour delay (Example 107A); type: in vivo, rat; conditions: 3 mg/kg ip
Protocol: The effects of methyl 3,5-diphenylpyridazine-4-carboxylate on the in vivo spatial memory retention of aged-impaired (AI) rats were assessed in a Radial Arm Maze (RAM) behavioral task using vehicle control and four different dosage levels of methyl 3,5-diphenylpyridazine-4-carboxylate (0.1 mg/kg, 0.3 mg/kg, 1 mg/kg and 3 mg/kg, ip). RAM behavioral tasks were performed on eight AI rats. All five treatment conditions (vehicle and four dosage levels) were tested on all eight rats.
The RAM apparatus used consisted of eight equidistantly-spaced arms. An elevated maze arm (7 cm width×75 cm length) projected from each facet of an octagonal center platform (30 cm diameter, 51.5 cm height). Clear side walls on the arms were 10 cm high and were angled at […] to form a trough. A food well (4 cm diameter, 2 cm deep) was located at the distal end of each arm. Froot Loops™ (Kellogg Company) were used as rewards. Blocks constructed of Plexiglas™ (30 cm height×12 cm width) could be positioned to prevent entry to any arm. Numerous extra maze cues surrounding the apparatus were also provided.
The AI rats were initially subjected to a pre-training test (Chappell et al. Neuropharmacology 37: 481-487, 1998). […]

[3] = type: in vivo, Long Evans rats; conditions: i.v.
Protocol: as §1
For plasma exposures, blood samples were centrifuged at 14000 rpm for 16 minutes. After centrifuging, 50 ul of supernatant (plasma) from each sample was added to 200 μl of acetonitrile plus 0.1% formic acid. […] Samples were sonicated for 5 minutes in an ultrasonic water bath, followed by centrifugation for 30 minutes, at 16000 RPM. 100 ul of supernatant was removed from each sample vial and placed in a new glass auto sample vial, followed by the addition of 300 μl of sterile water (pH 6.5).

[4] = molecular target: α5-containing GABAA R (Homo sapiens, UniProt P18507+P31644); conditions: cited from earlier work
Sequence of α5-containing GABAA R (P31644 32-462): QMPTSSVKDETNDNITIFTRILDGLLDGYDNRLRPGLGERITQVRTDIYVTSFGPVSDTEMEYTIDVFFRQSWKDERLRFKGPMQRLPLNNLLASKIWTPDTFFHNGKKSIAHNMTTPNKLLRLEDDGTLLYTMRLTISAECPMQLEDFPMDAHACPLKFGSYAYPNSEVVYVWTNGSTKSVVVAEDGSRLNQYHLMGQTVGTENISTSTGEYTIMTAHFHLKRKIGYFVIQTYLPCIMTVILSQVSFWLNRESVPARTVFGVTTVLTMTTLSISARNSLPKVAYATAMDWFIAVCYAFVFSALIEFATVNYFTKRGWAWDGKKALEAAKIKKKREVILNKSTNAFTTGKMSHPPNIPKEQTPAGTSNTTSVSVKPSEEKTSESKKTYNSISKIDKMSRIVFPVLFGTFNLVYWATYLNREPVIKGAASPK
Sequence of α5-containing GABAA R (P28472 26-473 partner): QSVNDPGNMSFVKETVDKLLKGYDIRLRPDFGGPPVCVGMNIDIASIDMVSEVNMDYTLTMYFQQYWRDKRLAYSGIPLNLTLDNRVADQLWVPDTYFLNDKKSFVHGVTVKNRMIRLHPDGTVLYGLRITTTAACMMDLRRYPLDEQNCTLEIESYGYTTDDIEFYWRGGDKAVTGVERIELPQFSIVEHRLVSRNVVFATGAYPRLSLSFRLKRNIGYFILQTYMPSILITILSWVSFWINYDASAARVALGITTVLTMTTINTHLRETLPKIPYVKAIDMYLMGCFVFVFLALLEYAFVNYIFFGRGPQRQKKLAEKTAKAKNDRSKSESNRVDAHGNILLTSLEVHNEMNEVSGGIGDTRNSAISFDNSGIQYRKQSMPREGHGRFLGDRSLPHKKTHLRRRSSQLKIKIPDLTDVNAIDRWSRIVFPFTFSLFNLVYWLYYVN
Sequence of α5-containing GABAA R (P18507 40-475): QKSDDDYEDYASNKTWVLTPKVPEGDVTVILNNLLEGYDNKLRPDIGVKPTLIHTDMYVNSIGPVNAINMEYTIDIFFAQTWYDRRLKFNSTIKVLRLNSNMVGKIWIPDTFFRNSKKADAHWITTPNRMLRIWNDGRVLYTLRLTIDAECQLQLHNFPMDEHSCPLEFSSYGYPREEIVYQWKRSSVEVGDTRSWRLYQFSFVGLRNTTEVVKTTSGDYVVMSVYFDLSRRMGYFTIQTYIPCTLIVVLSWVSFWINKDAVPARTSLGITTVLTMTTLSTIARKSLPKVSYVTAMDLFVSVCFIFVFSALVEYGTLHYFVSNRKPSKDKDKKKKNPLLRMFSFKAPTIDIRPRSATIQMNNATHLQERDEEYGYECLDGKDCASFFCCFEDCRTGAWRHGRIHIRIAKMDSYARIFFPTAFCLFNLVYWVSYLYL

Structure (SMILES): COC(=O)c1c(-c2ccccc2)cnnc1-c1ccccc1 [methyl 3,5-diphenylpyridazine-4-carboxylate]
- effect on Ro 15-4513 binding in hippocampus ([1]; 0.01-10 mg/kg, i.v.): blocked the binding; also recorded: dose-dependently reduced
- effect on cerebellum levels of Ro 15-4513 ([1]; 0.01-10 mg/kg, i.v.): did not affect binding; also recorded: without affecting
- GABAA α5 receptors occupied at exposures behaviorally active in aged-impaired rats ([1]; hippocampus, FIG. 4): about 32%
- ED50 of receptor occupancy, ratio method ([1]; i.v.): 1.8 mg/kg
- GABAA α5 receptor occupancy, dose dependence ([1]; rat, in vivo): dose-dependent increase
- receptor occupancy at 10 mg/kg ([1]; rat, iv, 10 mg/kg): > 90%
- ED50 ([1]; rat, iv, read-out: ED50 of receptor occupancy, using L-755,608 to define occupancy): 1.1 mg/kg
- memory performance relative to vehicle control ([2]; t(7)=4.233, p=0.004): significantly improved memory performance
- average no. of errors ± SEM in retention test ([2]; two-hour delay): 1.31±0.40
- increase in hippocampal exposure ([3]; dose from 0.1 to 1 mg/kg): 12 fold
- increase in hippocampal exposure ([3]; dose from 1 to 10 mg/kg): ~5 fold
- increase in plasma exposure ([3]; dose from 1 to 10 mg/kg): 12 fold
- α5 in vitro efficacy (EC20) [4]: +27
